Where two headings read alike, the source gives them in different places.
Key:
mice = conditions: for Titer, 1 injection / Titer, 2 injections / Titer, 3 injections: s.c.; for Titer, 2 injections: one week after 2nd injection; for Titer, 3 injections: one week after 3rd injection
Protocol: Animals were immunized using standard protocols. In mice, three subcutaneous injections of vaccine were administered, two weeks apart, with test bleeds performed one week following the first and second injection, and exsanguination occurring one week following the third injection. Serum samples were evaluated in an ELISA assay, described in Example 10. The ELISA assay utilized 3′ AMNic-pGlu bound to microtiter plates.
Antibodies generated against 3′ AMNic vaccine were evaluated using a 3′ AMNic-pGlu ELISA as follows: Dynatech Immulon 4 microtiter plates (Chantilly, Va.) were coated 100 μL/well with 10 ng/mL 3′ AMNic-pGlu in 0.1 M bicarbonate buffer, pH 9.6 and allowed to incubate overnight (ON) at room temperature (RT). The plates were then aspirated and blocked with 1% BSA in PBS for one hour at RT. […] The plates were washed (9% NaCl, 0.1% BRIJ) five times and diluted samples and reference serum were loaded. The reference and samples were 2-fold diluted down the plates for a final volume of 100 μL/well and plates are incubated for 1 hour at 37° C. The plates were then washed again and loaded 100 μL/well with peroxidase-conjugated anti-species IgG, Fc specific (Jackson, West Grove, Pa.) diluted in PBB and incubated at 37° C. for one hour. The plates were washed and incubated 10 minutes at RT with 100 μl/well 3,3′,5,5′-tetramethylbenzidine (TMB) substrate (KPL, Gaithersburg, Md.) diluted 1:1 with H2O2 (supplied with TMB reagent kit). The reaction is stopped with the addition of 100 μL/well 1 M phosphoric acid and read at 450 nm on an MR4000 microtiter plate reader (Dynatech). Samples are quantified in relation to the reference using parallel line analysis.

rats [1] = conditions: for Titer, 1 injection / Titer, 2 injections / Titer, 3 injections: i.p.; for Titer, 1 injection: one week after 1st injection; for Titer, 2 injections: one week after 2nd injection; for Titer, 3 injections: one week after 3rd injection
Protocol: Rats were immunized intraperitoneally with the vaccines three times. Injections were given two weeks apart with test bleeds performed one week following the first and second injection. The rats were then exsanguinated one week after the third injection. Freund's complete adjuvant was used for the first injection, and incomplete Freund's adjuvant for the subsequent injections. Serum samples were evaluated in an ELISA assay.
(§1) Antibodies generated against 3′ AMNic vaccine were evaluated using a 3′ AMNic-pGlu ELISA as follows: Dynatech Immulon 4 microtiter plates (Chantilly, Va.) were coated 100 μL/well with 10 ng/mL 3′ AMNic-pGlu in 0.1 M bicarbonate buffer, pH 9.6 and allowed to incubate overnight (ON) at room temperature (RT). The plates were then aspirated and blocked with 1% BSA in PBS for one hour at RT. […] The plates were washed ([…], 0.1% BRIJ) five times and diluted samples and reference serum were loaded. The reference and samples were 2-fold diluted down the plates for a final volume of 100 μL/well and plates are incubated for 1 hour at 37° C. The plates were then washed again and loaded 100 μL/well with peroxidase-conjugated anti-species IgG, Fc specific (Jackson, West Grove, Pa.) diluted in PBB and incubated at 37° C. for one hour. The plates were washed and incubated 10 minutes at RT with 100 μl/well 3,3′,5,5′-tetramethylbenzidine (TMB) substrate (KPL, Gaithersburg, Md.) diluted 1:1 with H2O2 (supplied with TMB reagent kit). The reaction is stopped with the addition of 100 μL/well 1 M phosphoric acid and read at 450 nm on an MR4000 microtiter plate reader (Dynatech). Samples are quantified in relation to the reference using parallel line analysis.

rabbits = conditions: i.m., dose 100 μg, arithmetic mean six to seven weeks after third injection
Protocol: as §1

rats [2] = conditions: three i.p. injections of 25 μg vaccine, 3 and 10 min after 0.03 mg/kg nicotine infusion over 10 seconds
Protocol: To evaluate the present immunotherapy, an animal model has been developed to simulate the rapid absorption of nicotine from two cigarettes in humans. […] In this model, rats were administered 0.03 mg/kg of nicotine by i.v. infusion over 10 sec., simulating the rapid absorption of nicotine from the lungs in human smokers. Blood samples were taken at 3 and 10 min after nicotine injection for measurement of plasma nicotine.

[3] = 0.5 mg/mL in 1 mL glass vials
Protocol: A stability study of the nicotine-carrier conjugate of example 4 was carried out. The study used the vaccine vialed in 1 mL glass vials at a concentration of 0.5 mg/mL and the stability of the vialed vaccine was tested at three different temperatures: −70° C., 2 to 8° C. and room temperature.
The stability study consisted of monitoring and assaying the conjugate vaccine using the following:
1.) Visual observation to look for any particulates formed (turbidity, precipitation).
2.) Checking for any significant pH change.
3.) Size exclusion chromatography profile in combination with UV absorption at 260 and 280 nm to determine if the ratio of nicotine incorporation changed.
4.) Reversed phase chromatography to check for any carrier protein degradation.
5.) SDS PAGE with silver staining looking for any proteolytic cleavage of the conjugated protein.

rats [4] = assay: Locomotor effects of nicotine; assay type: in vivo; conditions: subcutaneous injection
Excerpt: This experiment used was designed to determine whether passive immunization could prevent an immediate CNS mediated action of nicotine. The rat model used in this experiment was developed by Dr. David Malin and is described in Malin et al. Nicotine-specific IgG reduced distribution to brain and attenuates its behavioral and cardiovascular effects in rats, submitted to the Fifth Annual Meeting of the Society for Research on Nicotine and Tobacco, San Diego, Calif., Mar. 5-7, 1999; To establish a baseline, the effect of a subcutaneous injection of 0.8 mg/kg of nicotine tartrate on locomotor activity level of rats was measured. The 0.8 mg/kg dose of nicotine tartrate is the highest dose that could be used without inducing locomotor abnormalities.
There was an increase in activity level after nicotine injection in rats that were not pre-treated with anti-[3′ AMNic-Suc-rEPA], and in rats that were pretreated with 50 mg of normal rabbit serum IgG. See FIG. 6A, right bar and FIG. 6B, left bar. This effect was suppressed by pretreating the animals with 50 mg of anti-[3′ AMNic-Suc-rEPA] immune IgG (FIG. 6B, right bar).

[5] = cited from earlier work

For “3-aminomethyl-(−)-nicotine-polyglutamic acid-ADH-rEPA [3′AMNic-pGlu-ADH-rEPA]”, the Booster response (mice) was “showed the ability to induce the booster response”, the “Titer, 1 injection” value (mice; dose 2 μg (dry weight of lyophilized conjugate), one week after 1st injection) was 2 and the “Titer, 2 injections” value (mice; dose 2 μg (dry weight)) was 739. The “Titer, 3 injections” value (mice; dose 2 μg (dry weight)) was 6,586, the “Titer, 1 injection” value (mice; dose 10 μg (dry weight), one week after 1st injection) was 2 and the “Titer, 2 injections” value (mice; dose 10 μg (dry weight)) was 2,490. The “Titer, 3 injections” value (mice; dose 10 μg (dry weight)) was 9,573, the “Titer, 1 injection” value (mice; dose 30 μg (dry weight), one week after 1st injection) was 11 and the “Titer, 2 injections” value (mice; dose 30 μg (dry weight)) was 2,822. For the same compound, the “Titer, 3 injections” value (mice; dose 30 μg (dry weight)) was 8,195, the Booster response (rats [1]) was “showed the ability to induce the booster response” and the “Titer, 1 injection” value (rats [1]; dose 100 μg (dry weight of lyophilized conjugate)) was 0. The “Titer, 2 injections” value (rats [1]; dose 100 μg (dry weight)) was 1,067, the “Titer, 3 injections” value (rats [1]; dose 100 μg (dry weight)) was 3,752 and the Titer (rabbits) was 147,000.

With “3′aminomethyl-(−)-nicotine-succinyl-rEPA [3′AMNic-Suc-rEPA]” the “Nicotine in plasma versus non-immunized controls” value (rats [2]) was “increased levels of nicotine in plasma”, the Booster response (mice) was “showed the ability to induce the booster response” and the “Titer, 1 injection” value (mice; dose 1 μg (protein assay), arithmetic mean one week after 1st injection) was 0. For the same compound, the “Titer, 2 injections” value (mice; dose 1 μg (protein assay)) was 36, the “Titer, 3 injections” value (mice; dose 1 μg (protein assay)) was 4,280 and the “Titer, 1 injection” value (mice; dose 5 μg (protein assay), one week after 1st injection) was 1. The “Titer, 2 injections” value (mice; dose 5 μg (protein assay)) was 884, the “Titer, 3 injections” value (mice; dose 5 μg (protein assay)) was 10,727 and the “Titer, 1 injection” value (mice; dose 15 μg (protein assay), one week after 1st injection) was 3. For the same compound, the “Titer, 2 injections” value (mice; dose 15 μg (protein assay)) was 2,476, the “Titer, 3 injections” value (mice; dose 15 μg (protein assay)) was 14,160 and the Booster response (rats [1]) was “showed the ability to induce the booster response”. The “Titer, 1 injection” value (rats [1]; Freund's adjuvant, dose 15 μg (protein assay)) was 18, the “Titer, 2 injections” value (rats [1]; dose 15 μg (protein assay)) was 7,942 and the “Titer, 3 injections” value (rats [1]; dose 15 μg (protein assay)) was 9,947. The “Titer, 1 injection” value (rats [1]; dose 25 μg (protein assay)) was 4, the “Titer, 2 injections” value (rats [1]; dose 25 μg (protein assay)) was 1,446 and the “Titer, 3 injections” value (rats [1]; dose 25 μg (protein assay)) was 5,991. The “Titer, 1 injection” value (rats [1]; dose 50 μg (protein assay)) was 353, the “Titer, 2 injections” value (rats [1]; dose 50 μg (protein assay)) was 7,211 and the “Titer, 3 injections” value (rats [1]; dose 50 μg (protein assay)) was 8,996. The Titer (rabbits) was 132,000, the “Stability of the conjugate” value ([3]; −70° C. and 2 to 8° C.) was “stability of the conjugate for six months” and the “Stability of the conjugate” value ([3]; −70° C., 2 to 80° C. and room temperature) was “stability of the conjugate for six months”.

With `CN1CCCC1c1cccnc1.O=C(O)C(O)C(O)C(=O)O` (stereo not drawn) [nicotine tartrate] the “Highest dose without inducing locomotor abnormalities” value (rats [4]) was 0.8 mg/kg.

For `CN1CCC[C@H]1c1cccnc1` [nicotine, (S)-(−)-nicotine], the “Time to peak levels of nicotine in the blood” value ([5]; after smoking a cigarette) is given as 10 to 15 min and the “Arterial versus venous nicotine concentrations” value ([5]; humans, smoking a cigarette) is given as 10 fold.
